Tests used:
[1] = Metabolite profiling in plasma (LC-MS-TopCount); type: in vivo, human
Procedure: Plasma samples from six patients were pooled using two methods: (1) A Hamilton pool plasma (0–24 h) for metabolite profile determination was prepared by combining plasma aliquots of a volume proportional to the time interval used for calculating the AUC (AUC0-24h pool) for each patient and (2) four time-point pooling samples were obtained by equal volume pool at 1, 4, 8, and 24 h across six patients. In addition, plasma samples at 1, 8, and 24 h were selected from three patients (Patients 03, 08, and 09) for metabolite profiles analysis to check the individual differences between patients. Samples collected after 24 h post dose were not included in the pooling due to the low radioactivity at later time points. All plasma samples (pooled and from individuals) were extracted at least two times with acetonitrile. All supernatants were evaporated to dryness, and the dried residues were reconstituted in 20% acetonitrile in water containing 0.1% TFA. The sample recovery was obtained by comparing the radioactivity concentrations before and after extraction, and the mean recovery was about 70%.
Aliquots of the supernatants were injected into the HPLC, and the HPLC elutes were collected as fractions at intervals of 30 sec per well into LumaPlate-96 DeepWell microplates (PerkinElmer). Due to the low radioactivity in each plasma sample, metabolite profiles were obtained by TopCount (PerkinElmer) analysis of HPLC elutes. The fractions were dried at room temperature, and then analyzed by a TopCount NXT radiometric microplate reader (PerkinElmer) to obtain metabolite profiles. The supernatants of extracts were also analyzed using an LC-MS method to identify metabolites.
Metabolite profiling and identification were performed on an LC system (Agilent) coupled to an LTQ Orbitrap mass spectrometer (Thermo Electron, Waltham, MA, USA) in combination with offline TopCount (LC-MS-TopCount) or online Radiomatic 625TR (LC-MS-Radiomatic; PerkinElmer). Proposed structures of the metabolites were based on accurate mass (<5 ppm) and comparison of mass spectral data of parent compound rucaparib and metabolite standard M324. The Radiomatic 625TR flow detector, equipped with a 200 μL flow cell, was operated using scintillation cocktail (Ultima-Flo M) delivered at a flow rate of 1 mL/min. Chromatography was done using a Phenomenex (Torrance, CA, USA) Luna Phenyl-Hexyl column (250 × 2 mm, 5 μm, 100 Å) at ambient temperature during the sample analysis. The mobile phase was (A) 0.05% TFA in water and (B) 0.05% TFA in acetonitrile, with a 0.2 mL/min flow rate. The gradient was as follows: 5% B over 2.1 min, to 20% B in 1.0 min, to 35% B in 16.9 min, isocratic at 35% B for 5 min, to 95% B over 5 min, and reduced to 5% B over 1 min, with total run time 45 min.
The abundance of unchanged rucaparib and metabolites identified in plasma, urine, and feces was determined as a percentage of the TRA in the analyzed samples. Percentage of the administered dose of rucaparib and metabolites was calculated in urine and feces (formula A). The concentration of rucaparib and its metabolites in plasma (ng Eq h/mL) was calculated based on the specific activity, TRA, and percentage of peaks (formula B). The AUC0-24h value of rucaparib and its major metabolite M324 in plasma was calculated using both Hamilton method (formula C) and linear trapezoidal method (formula D). • (A) %Doseofmetabolite=TRAinurineorfeces(dpm)÷TRAinadministereddose(dpm)×%metabolitesinmatrix • (B) Metaboliteconcentrationsinplasma(ngEq/mL)=TRAinplasma(dpm/mL)specificactivity(ngEq/dpm)×%metabolitesinthematrix • (C) Hamiltonmethod:AUC0−24h(ngEqh/mL)=concentrationinHamilton(AUC0−24h)pooledplasma(ngEq/mL)×24(h) • (D) Lineartrapezoidalmethod:AUC0−24h(ngEqh/mL)=C1h/2×1h+C1h+C4h/2×(4h−1h)+C4h+C8h/2×(8h−4h)+C8h+C24h/2×(24h−8h)

[2] = cited from earlier work
[3] = 0-24 h pooled plasma, N = 6, mean ± SD
[4] = single oral 600 mg, versus fasted

## CNCc1ccc(-c2[nH]c3cc(F)cc4c3c2CCNC4=O)cc1 [Rucaparib, rucaparib]
[1]; [3]
  % Peak (of plasma radioactivity), Hamilton (AUC0-24h) pooled plasma: 64.0 ± 13.7%
  Concentration, Hamilton (AUC0-24h) pooled plasma: 335 ± 120 ng Eq/mL
[1]; 0-24 h pooled plasma, N = 6, mean ± SD, listed as rucaparib
  % Peak (of plasma radioactivity), Hamilton (AUC0-24h) pooled plasma: 64.0% and ≈ 64%
[1]; Patient 03, 1 h
  % Radioactive peaks in individual plasma, Patient 03, 1 h: 75.0%
[1]; Patient 03, 8 h
  % Radioactive peaks in individual plasma, Patient 03, 8 h: 66.7%
[1]; Patient 03, 24 h
  % Radioactive peaks in individual plasma, Patient 03, 24 h: 36.1%
[1]; Patient 08, 1 h
  % Radioactive peaks in individual plasma, Patient 08, 1 h: 92.1%
[1]; Patient 08, 8 h
  % Radioactive peaks in individual plasma, Patient 08, 8 h: 68.2%
[1]; Patient 08, 24 h
  % Radioactive peaks in individual plasma, Patient 08, 24 h: 38.5%
[1]; Patient 09, 1 h
  % Radioactive peaks in individual plasma, Patient 09, 1 h: 84.6%
[1]; Patient 09, 8 h
  % Radioactive peaks in individual plasma, Patient 09, 8 h: 82.1%
[1]; Patient 09, 24 h
  % Radioactive peaks in individual plasma, Patient 09, 24 h: 56.5%
[1]; Patients 03, 08, 09, 1 h
  % Radioactive peaks in individual plasma, Mean ± SD, 1 h: 83.9 ± 8.57%
[1]; Patients 03, 08, 09, 8 h
  % Radioactive peaks in individual plasma, Mean ± SD, 8 h: 72.3 ± 8.49%
[1]; Patients 03, 08, 09, 24 h
  % Radioactive peaks in individual plasma, Mean ± SD, 24 h: 43.7 ± 11.1%
[1]; concentration in 0-24-h pooled sample × 24 h
  AUC0-24h, Hamilton (AUC0-24h) pooled plasma: 8040 ng Eq h/mL
[1]; human, plasma, oral, 600 mg, single pooled sample from all six patients, 1 h, read-out: Mean concentration, time point pooled plasma, 1 h
  concentration at 1 h: 317 ng/mL
[1]; human, plasma, oral, 600 mg, single pooled sample from all six patients, 4 h, read-out: Mean concentration, time point pooled plasma, 4 h
  concentration at 4 h: 590 ng/mL
[1]; human, plasma, oral, 600 mg, single pooled sample from all six patients, 8 h, read-out: Mean concentration, time point pooled plasma, 8 h
  concentration at 8 h: 545 ng/mL
[1]; human, plasma, oral, 600 mg, single pooled sample from all six patients, 24 h, read-out: Mean concentration, time point pooled plasma, 24 h
  concentration at 24 h: 151 ng/mL
[1]; trapezoidal method from 1, 4, 8, 24 h pools
  Mean AUC0-24h, time point pooled plasma: 9360 ng Eq h/mL
[2]; 600 mg BID
  Accumulation at steady state: approximately four-fold
  Time of dosing to achieve steady state: 1 week
[2]; 40–500 mg QD and 240–840 mg BID
  Dose proportionality of plasma exposure: dose proportional
[2]; 40–500 mg once daily, Study 10
  Median tmax, QD dosing: 1.5 to 6.0 h
[2]; 240–840 mg twice daily, Study 10
  Median tmax, BID dosing: 1.5 to 4.0 h
[2]; Study 10
  Apparent steady-state clearance, BID dosing: 26.2 to 58.6 L/h
  Apparent steady-state clearance, QD dosing: 26.7 to 47.5 L/h
[2]; [4]
  Increase of AUC by a high-fat meal: 38%
  Increase of Cmax by a high-fat meal: 20%
[2]; single oral dose, dose range 40–500 mg
  t1/2 in a previous clinical trial: 11 to 29.8 h

— paper PMC7211193, “Evaluation of absorption, distribution, metabolism, and excretion of [^14C]-rucaparib, a poly(ADP-ribose) polymerase inhibitor, in patients with advanced solid tumors” (Investigational New Drugs, 2019)
